Measurements reported in patent publication US6344457B1, “Amino acid derivatives inhibiting extracellular matrix metalloproteinase and TNF alpha release” (Chiesi Farmaceutici S.p.A., priority 1997, dated 2002).
Like-named read-outs stand apart in the source and are kept apart here. Values belong to the compound of their own block, whether it stands above or below them.

Columns and labels:
[1] = Determination of bioavailability (blood levels, ex-vivo bioassay); format: in vivo; conditions: mice
Experimental: The compounds of this invention were administered i.p. or p.o. between 1 and 50 mg/kg to mice: the blood levels then were determined by an ex-vivo bioassay according to Wang X. et al. (Cancer Res., 54, 4726-4728, 1994). The introduction of an OH group systematically increases the bioavailability of the products.

[2] = target: 92 kDa gelatinase of human origin (Homo sapiens, UniProt P14780); assay: Activity on gelatinase, radiomarked gelatin; format: biochemical; conditions: test performed with radiomarked gelatin; read-out: C150 (nM) gelatinase 92 kDa*
Experimental: The anti-gelatinase activity of the compounds according to the invention also was determined on 92 kDa or 72 kDa gelatinase of human origin, in accordance with the operating mode described by Harris, E. D., Krane, S. M.; (Biochem. Biophys. Acta, 258, 566-576, 1972).
The gelatinase was incubated at 37° C. for 16 hours with radiomarked gelatin, and its activity was determined by the release of the soluble peptides produced by the enzymatic breakdown of the gelatin. The inhibiting concentration C150 for each compound was determined by measurement of the activity of the enzyme in the presence of the inhibitor at a concentration ranging between 10^−7 and 10^−12 M (the inhibitor is dissolved in the same manner as for collagenase).

[3] = target: T1, collagenase of the human monocytic stock U937 (Homo sapiens, UniProt P03956); assay: Activity on collagenase; format: biochemical; conditions: radiomarked collagen, 27° C., 16 hours; read-out: C150 (nM) collagenase
T1 construct: the collagenase of the human monocytic stock U937; endogenous in cells; host or cells: U937 human monocytic cell line
T1 sequence (P03956 100-469): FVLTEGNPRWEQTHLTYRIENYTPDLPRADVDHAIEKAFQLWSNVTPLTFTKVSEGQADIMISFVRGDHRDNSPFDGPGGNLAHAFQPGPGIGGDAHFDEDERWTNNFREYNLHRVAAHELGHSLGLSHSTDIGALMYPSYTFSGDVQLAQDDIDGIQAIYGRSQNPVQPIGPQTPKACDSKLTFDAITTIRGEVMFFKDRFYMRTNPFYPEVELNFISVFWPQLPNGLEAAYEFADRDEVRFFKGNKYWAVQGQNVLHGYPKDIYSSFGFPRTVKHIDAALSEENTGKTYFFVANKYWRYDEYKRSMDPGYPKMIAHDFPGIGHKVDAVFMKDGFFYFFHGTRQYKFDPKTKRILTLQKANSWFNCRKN
Experimental: The collagenase was incubated at 27° C. for 16 hours with radiomarked collagen, and its activity was determined by the release of soluble peptides produced by the enzymatic breakdown of the collagen. The inhibiting concentration C150 for each compound was determined by measurement of the activity of the enzyme in the presence of the inhibitor at a concentration ranging between 10^−7 and 10^−12 M (the inhibitor is dissolved at a concentration of 10^−2 M in DMSO, then diluted successively by tenths in the buffer: Tris, HCl 150 mM, pH 7.5; NaCl 0.15 M; CaCl2 10 mM).

[4] = system: release of TNF from the peritoneal macrophages of mice stimulated by LPS; assay: Inhibition of the production of TNF in vitro; format: cell-based; conditions: Peritoneal macrophage; mouse peritoneal macrophages, LPS 100 ng/ml; read-out: C150 (μM) TNF
Experimental: The capacity of the compounds according to this invention to inhibit the release of TNF was determined from the peritoneal macrophages of mice stimulated by LPS (Lang, F., Robert, […], Petit, J. Y., J. Pharmacol. Exp. Ther., 275, 171-176, 1995). After an adhesion phase of 2 hours, the cells were treated for 1 hour with the compound to be tested at concentrations ranging between 10^-6 to 10^-9 M (the inhibitor is dissolved in DMSO at 10^-2 M, then at 5.10^-3 M in RPMI 1640 with 5% SVF, then diluted successively by tenths in the same medium), then stimulated by the addition of LPS (100 ng/ml in final concentration). Three hours later, the biological activity of the TNF in the supernatants was determined by a cytotoxicity test using the murine stock L929 in accordance with the operating procedure described by Band, G., Lin, […]., Evans, C. H. (Bioch. Biophys. Acta, 1134, 309-318, 1982). The pg/ml concentration of the TNF of the samples was determined from a murine αTNF standard curve, thus making it possible to define the inhibiting concentration […] of the compounds studied.

[5] = mouse, blood, ip, 50 mg/kg, 50 mg/kg i.p., read-out: blood level, I.p. method, 1 h
[6] = mouse, blood, ip, 50 mg/kg, 50 mg/kg i.p., read-out: blood level, I.p. method, 24 h
[7] = mouse, blood, po, 50 mg/kg, 50 mg/kg p.o., read-out: blood level, P.o. method, 1 h
[8] = mouse, blood, po, 50 mg/kg, 50 mg/kg p.o., read-out: blood level, P.o. method, 10′
[9] = mouse, blood, po, 50 mg/kg, 50 mg/kg p.o., read-out: blood level, P.o. method, 20′
[10] = mouse, blood, po, 50 mg/kg, 50 mg/kg p.o., read-out: blood level, P.o. method, 40′
[11] = mouse, blood, ip, 50 mg/kg, 50 mg/kg i.p., read-out: blood level, I.p. method, 40′
[12] = mouse, blood, ip, 50 mg/kg, 50 mg/kg i.p., read-out: blood level, I.p. method, 10′
[13] = mouse, blood, ip, 50 mg/kg, 50 mg/kg i.p., read-out: blood level, I.p. method, 20′
[14] = mouse, blood, po, 50 mg/kg, 50 mg/kg p.o., read-out: blood level, P.o. method, 24 h

Sequence of 92 kDa gelatinase of human origin (P14780 94-707): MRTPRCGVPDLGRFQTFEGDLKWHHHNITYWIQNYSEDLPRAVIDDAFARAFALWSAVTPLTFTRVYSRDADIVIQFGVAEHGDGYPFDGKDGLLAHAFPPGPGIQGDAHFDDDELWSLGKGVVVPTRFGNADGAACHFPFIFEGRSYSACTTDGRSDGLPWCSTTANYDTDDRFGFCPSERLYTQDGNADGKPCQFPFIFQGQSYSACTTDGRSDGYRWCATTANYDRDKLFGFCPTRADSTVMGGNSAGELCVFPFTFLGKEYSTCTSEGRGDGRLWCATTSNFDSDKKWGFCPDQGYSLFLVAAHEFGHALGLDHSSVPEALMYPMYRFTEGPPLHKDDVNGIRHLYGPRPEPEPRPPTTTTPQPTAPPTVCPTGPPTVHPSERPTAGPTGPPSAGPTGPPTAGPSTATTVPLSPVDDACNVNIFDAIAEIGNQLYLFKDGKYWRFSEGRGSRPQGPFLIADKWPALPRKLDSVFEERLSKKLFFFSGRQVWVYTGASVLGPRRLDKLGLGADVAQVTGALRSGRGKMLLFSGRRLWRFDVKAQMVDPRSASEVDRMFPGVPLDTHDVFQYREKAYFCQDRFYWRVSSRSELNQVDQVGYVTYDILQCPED

blood level, I.p. method, 10′ ([1]; 50 mg/kg i.p.): 87000 ng/mL
blood level, I.p. method, 20′ ([1]; 50 mg/kg i.p.): 13000 ng/mL
blood level, P.o. method, 10′ ([1]; 50 mg/kg p.o.): 5100 ng/mL
blood level, P.o. method, 20′ ([1]; 50 mg/kg p.o.): 3100 ng/mL
blood level, P.o. method, 24 h ([1]; 50 mg/kg p.o.): <300 ng/mL
concentration at 1 h [1, 5]: 1700 ng/mL
concentration at 24 h [1, 6]: 300 ng/mL
concentration at 1 h [1, 7]: 400 ng/mL
Compound: CC(C)C[C@@](O)(C(=O)N[C@@H](Cc1ccc(Cl)cc1)C(=O)NCCN1CCOCC1)[C@H](C)C(=O)NO [drawing 116]

blood level, I.p. method, 10′ ([1]; 50 mg/kg i.p.): 30000 ng/mL
blood level, I.p. method, 20′ ([1]; 50 mg/kg i.p.): 27000 ng/mL
blood level, P.o. method, 10′ ([1]; 50 mg/kg p.o.): 2300 ng/mL
blood level, P.o. method, 20′ ([1]; 50 mg/kg p.o.): 1200 ng/mL
blood level, P.o. method, 24 h ([1]; 50 mg/kg p.o.): 900 ng/mL
concentration at 40 min [1, 11]: 18000 ng/mL
Compound: CC(C)C[C@@](O)(C(=O)N[C@@H](Cc1ccc(Cl)cc1)C(=O)NCCN1CCOCC1)[C@H](C)C(=O)NO [drawing 115]

blood level, I.p. method, 10′ ([1]; 50 mg/kg i.p.): 700 ng/mL
blood level, I.p. method, 20′ ([1]; 50 mg/kg i.p.): 500 ng/mL
blood level, I.p. method, 40′ ([1]; 50 mg/kg i.p.): 100 ng/mL
blood level, P.o. method, 10′ ([1]; 50 mg/kg p.o.): 100 ng/mL
blood level, P.o. method, 20′ ([1]; 50 mg/kg p.o.): 100 ng/mL
Compound: CC(C)C[C@@](O)(C(=O)N[C@@H](Cc1ccc(Cl)c(Cl)c1)C(=O)NCCN1CCOCC1)[C@H](C)C(=O)NO [drawing 118]

concentration at 10 min [1, 12]: 200 ng/mL
concentration at 20 min [1, 13]: < 100 ng/mL
concentration at 40 min [1, 11]: < 100 ng/mL
concentration at 10 min [1, 8]: < 100 ng/mL
concentration at 20 min [1, 9]: < 100 ng/mL
concentration at 40 min [1, 10]: < 100 ng/mL
Compound: CNC(=O)[C@H](Cc1ccc(OC)cc1)NC(=O)[C@H](CC(C)C)[C@H](C)C(=O)NO [drawing 113]

blood level, I.p. method, 10′ ([1]; 50 mg/kg i.p.): 6000 ng/mL
blood level, I.p. method, 20′ ([1]; 50 mg/kg i.p.): 5000 ng/mL
blood level, I.p. method, 40′ ([1]; 50 mg/kg i.p.): 1800 ng/mL
blood level, P.o. method, 10′ ([1]; 50 mg/kg p.o.): 1250 ng/mL
blood level, P.o. method, 20′ ([1]; 50 mg/kg p.o.): 800 ng/mL
concentration at 1 h [1, 7]: 450 ng/mL
Compound: CC(C)C[C@@](O)(C(=O)N[C@@H](Cc1ccc(Cl)c(Cl)c1)C(=O)NCCN1CCOCC1)[C@H](C)C(=O)NO [drawing 119]

concentration at 10 min [1, 12]: 23000 ng/mL
concentration at 20 min [1, 13]: 8700 ng/mL
concentration at 1 h [1, 5]: 770 ng/mL
concentration at 24 h [1, 6]: < 500 ng/mL
concentration at 10 min [1, 8]: 4200 ng/mL
concentration at 20 min [1, 9]: 2100 ng/mL
concentration at 1 h [1, 7]: 580 ng/mL
concentration at 24 h [1, 14]: < 500 ng/mL
Compound: CNC(=O)[C@H](Cc1ccc(OC)cc1)NC(=O)[C@](O)(CC(C)C)[C@H](C)C(=O)NO [drawing 114]

IC50 [4]: 0.14 µM
Compound: CNC(=O)[C@@H](NC(=O)[C@H](CC(C)C)[C@H](O)C(=O)NO)C(C)(C)C [reference compound]

IC50 [2]: 1.6 nM
IC50 [3]: 26 nM
Compound: CC(C)C[C@@](O)(C(=O)N[C@@H](Cc1ccc(Cl)cc1)C(=O)NCC/C(N)=N/O)[C@H](C)C(=O)NO [Example 28, N-2(S)[1(S) hydroxycarbamoyl-1 ethyl]-2(S)hydroxy-4-methylpentanoyl L-4-chlorophenylalanine N-oximino-2-amino-2-ethylamide]

concentration at 10 min [1, 12]: 4500 ng/mL
concentration at 20 min [1, 13]: 7800 ng/mL
concentration at 40 min [1, 11]: 4400 ng/mL
concentration at 10 min [1, 8]: 100 ng/mL
concentration at 20 min [1, 9]: 100 ng/mL
Compound: CC(C)C[C@@](O)(C(=O)N[C@@H](Cc1ccc(Cl)c(Cl)c1)C(=O)NCCOCCO)[C@H](C)C(=O)NO [drawing 120]

Further lines, the compound ahead of its results:

Compound: CNC(=O)C(Cc1ccc(Cl)c(Cl)c1)NC(=O)[C@](O)(CC(C)C)[C@H](C)C(=O)NO (stereo partly shown)
concentration at 10 min [1, 8]: 600 ng/mL
concentration at 20 min [1, 9]: 300 ng/mL
concentration at 40 min [1, 10]: 600 ng/mL

Compound: CC(C)C[C@@](O)(C(=O)N[C@@H](Cc1ccc(Cl)cc1)C(=O)NCCC#N)[C@H](C)C(=O)NO [Example 27, N-2(S)[1(S) hydroxycarbamoyl-1 ethyl]-2(S)hydroxy-4-methylpentanoyl L-4-chlorophenylalanine N-(2-cyano-1-ethyl) amide]
IC50 [2]: 1.7 nM

Compound: CC(C)C[C@@](O)(C(=O)NC(Cc1ccc(Cl)cc1)C(=O)NCCN1CCOCC1)[C@H](C)C(=O)NO (stereo partly shown) [Example 12b]
IC50 [2]: 8 nM
IC50 [3]: 22 nM

Compound: CNC(=O)[C@H](Cc1ccc(OC)cc1)NC(=O)C(O)(CC(C)C)[C@H](O)C(=O)NO (stereo partly shown)
concentration at 10 min [1, 12]: 20000 ng/mL
concentration at 20 min [1, 13]: 0 ng/mL
concentration at 40 min [1, 11]: 4000 ng/mL
concentration at 10 min [1, 8]: 10000 ng/mL
concentration at 20 min [1, 9]: 9000 ng/mL
concentration at 1 h [1, 7]: 9000 ng/mL
concentration at 24 h [1, 14]: 9000 ng/mL

Compound: CNC(=O)[C@@H](NC(=O)C(O)(CC(C)C)[C@H](C)C(=O)NO)C(C)(C)C (stereo partly shown)
concentration at 10 min [1, 12]: 56000 ng/mL
concentration at 20 min [1, 13]: 22000 ng/mL
concentration at 1 h [1, 5]: 3500 ng/mL

Compound: CNC(=O)[C@@H](NC(=O)[C@H](CC(C)C)[C@H](O)C(=O)NO)C(C)C
concentration at 10 min [1, 12]: 20000 ng/mL
concentration at 20 min [1, 13]: 9000 ng/mL
concentration at 40 min [1, 11]: 47000 ng/mL
concentration at 10 min [1, 8]: 2200 ng/mL
concentration at 20 min [1, 9]: 4300 ng/mL
concentration at 30 min ([1]; mouse, blood, po, 50 mg/kg, 50 mg/kg p.o., 30′, read-out: blood level, P.o. method, 30′): 300 ng/mL
concentration at 1 h [1, 7]: 500 ng/mL
concentration at 24 h [1, 14]: 170 ng/mL

Compound: CC(C)C[C@@](O)(C(=O)NC(Cc1ccc(Cl)cc1)C(=O)NCCN1CCOCC1)C(C)C(=O)NO (stereo partly shown) [Example 12b]
IC50 [4]: 1.6 µM

Compound: N-2-(S)[(S)-hydroxy-(S)hydroxycarbamoylmethyl)-2(S)-hydroxy-4-methyl]pentanoyl-o-methyl-3-methyl-(S) valine N-methylamide [Example 34]
IC50 [2]: 34 nM
